Assay results: BigSolDB 2.1

`N#Cc1ccc([N+](=O)[O-])cc1` showed a solubility (mole fraction) (in ethanol, 278.15 K) of 0.00255, a solubility (mole fraction) (in ethanol, 283.15 K) of 0.00302 and a solubility (mole fraction) (in ethanol, 288.15 K) of 0.00376. The solubility (mole fraction) (in ethanol, 293.15 K) was 0.00454, the solubility (mole fraction) (in ethanol, 298.15 K) was 0.00556 and the solubility (mole fraction) (in ethanol, 303.15 K) was 0.00672. The solubility (mole fraction) (in ethanol, 308.15 K) was 0.00821, the solubility (mole fraction) (in ethanol, 313.15 K) was 0.00984 and the solubility (mole fraction) (in ethanol, 318.15 K) was 0.0116. It also gave a solubility (mole fraction) (in ethyl acetate, 278.15 K) of 0.0404, a solubility (mole fraction) (in ethyl acetate, 283.15 K) of 0.0463 and a solubility (mole fraction) (in ethyl acetate, 288.15 K) of 0.0538. The solubility (mole fraction) (in ethyl acetate, 293.15 K) was 0.0619, the solubility (mole fraction) (in ethyl acetate, 298.15 K) was 0.0721 and the solubility (mole fraction) (in ethyl acetate, 303.15 K) was 0.0842. It also gave a solubility (mole fraction) (in ethyl acetate, 308.15 K) of 0.1, a solubility (mole fraction) (in ethyl acetate, 313.15 K) of 0.119 and a solubility (mole fraction) (in ethyl acetate, 318.15 K) of 0.142. For the same compound, the solubility (mole fraction) (in isopropanol, 278.15 K) was 0.00162, the solubility (mole fraction) (in isopropanol, 283.15 K) was 0.00196 and the solubility (mole fraction) (in isopropanol, 288.15 K) was 0.00246. The solubility (mole fraction) (in isopropanol, 293.15 K) was 0.00304, the solubility (mole fraction) (in isopropanol, 298.15 K) was 0.00374 and the solubility (mole fraction) (in isopropanol, 303.15 K) was 0.0046. It also gave a solubility (mole fraction) (in isopropanol, 308.15 K) of 0.00572, a solubility (mole fraction) (in isopropanol, 313.15 K) of 0.00708 and a solubility (mole fraction) (in isopropanol, 318.15 K) of 0.00877. It also gave a solubility (mole fraction) (in methanol, 278.15 K) of 0.0032, a solubility (mole fraction) (in methanol, 283.15 K) of 0.0037 and a solubility (mole fraction) (in methanol, 288.15 K) of 0.00448. It also gave a solubility (mole fraction) (in methanol, 293.15 K) of 0.00541, a solubility (mole fraction) (in methanol, 298.15 K) of 0.00652 and a solubility (mole fraction) (in methanol, 303.15 K) of 0.00788. It also gave a solubility (mole fraction) (in methanol, 308.15 K) of 0.00955, a solubility (mole fraction) (in methanol, 313.15 K) of 0.0115 and a solubility (mole fraction) (in methanol, 318.15 K) of 0.0135. The solubility (mole fraction) (in n-propanol, 278.15 K) was 0.00227, the solubility (mole fraction) (in n-propanol, 283.15 K) was 0.00271 and the solubility (mole fraction) (in n-propanol, 288.15 K) was 0.0033. It also gave a solubility (mole fraction) (in n-propanol, 293.15 K) of 0.00407, a solubility (mole fraction) (in n-propanol, 298.15 K) of 0.00505 and a solubility (mole fraction) (in n-propanol, 303.15 K) of 0.00619. The solubility (mole fraction) (in n-propanol, 308.15 K) was 0.00758, the solubility (mole fraction) (in n-propanol, 313.15 K) was 0.00908 and the solubility (mole fraction) (in n-propanol, 318.15 K) was 0.0108.
